Measurements as given in patent US6887713B2, “Bioactive chip mass spectrometry” (Intrinsic Bioprobes, Inc., priority 2000, dated 2005).

Target: streptavidin (Streptomyces avidinii, UniProt P22629)
Details: mixture of 10.0 μM Pep K and 10.0 μM Pep R, 60 s at 20 μl/min, then ~15 s running buffer; immobilized streptavidin
Protocol: A bioactive chip BC containing streptavidin-derivatized separation site SS was exposed for 60 s (at a flow rate of 20 μl/min) to a mixture containing 10.0 μM Pep K and 10.0 μM Pep R, after which a ˜15 s exposure to the running buffer followed. The separation site SS on the bioactive chip BC was then MALDI-TOF MS analyzed.
The fitting parameters are listed in the figure and were used with starting concentrations of [Pep K]=7 uM; [Pep K(ox)]=3 uM; and [Pep R & Pep R(ox)]=10 uM. A criterion was used in which the relative quantities of the individual species at the end of the run corresponded to the relative quantities estimated from the mass spectrum taken from the surface of the separation site SS.

streptavidin, sequence (P22629 25-183, species assumed): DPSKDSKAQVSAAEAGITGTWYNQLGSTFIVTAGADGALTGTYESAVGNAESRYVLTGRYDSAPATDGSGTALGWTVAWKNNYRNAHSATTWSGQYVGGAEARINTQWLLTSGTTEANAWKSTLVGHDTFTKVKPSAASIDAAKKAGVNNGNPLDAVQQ

SGTSFHPQWIMVGRVATNSP [PepR]
retention by / affinity for streptavidin (change in MALDI-TOF ion signal intensity ratio before vs after interaction): preferential retention
